The results in this text go back to ChEMBL document CHEMBL1135275, “Structural approach of the mechanism of inhibition of alpha-chymotrypsin by coumarins” (Bioorg Med Chem Lett, 2002).

Chymotrypsinogen B (Bos taurus), sequence (P00767 16-146 limits assumed, other chains not shown): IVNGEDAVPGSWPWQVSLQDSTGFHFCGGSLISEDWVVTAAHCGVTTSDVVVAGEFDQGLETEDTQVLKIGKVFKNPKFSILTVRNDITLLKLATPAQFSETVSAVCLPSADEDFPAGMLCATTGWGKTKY
Chymotrypsinogen B (Bos taurus), sequence (P00767 149-245 limits assumed, other chains not shown): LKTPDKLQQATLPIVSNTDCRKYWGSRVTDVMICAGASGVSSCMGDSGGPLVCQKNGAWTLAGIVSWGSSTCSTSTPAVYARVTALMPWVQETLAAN

The assay has as its target Chymotrypsinogen B (Bos taurus) (UniProt P00767). In words: The compound was tested for inhibitory potency against Chymotrypsinogen.
The compound `O=C(Nc1ccccc1)c1cc2cc(CCl)ccc2oc1=O` had a K inact/Km of 200 M⁻¹ s⁻¹. In turn, `O=C(Oc1ccccc1)c1cc2cc(CCl)ccc2oc1=O` registered a K inact/Km of 100000 M⁻¹ s⁻¹. `O=C(c1ccccc1)c1cc2cc(CCl)ccc2oc1=O`: the K inact/Km was 2400 M⁻¹ s⁻¹. With `O=C(Cc1ccccc1)c1cc2cc(CCl)ccc2oc1=O` the figure was 10000 M⁻¹ s⁻¹. `O=C(Sc1ccccc1)c1cc2cc(CCl)ccc2oc1=O`: the K inact/Km is 48000 M⁻¹ s⁻¹.
